Results reported in EP2520566A1, “New Pharmaceutical Compounds” (Orion Corporation, priority 2011, dated 2012).

Biological target: TRPA1 (Homo sapiens, UniProt O75762)
Experiment: Determination of TRPA1 activity in vitro (TRPA1 antagonism in vitro), procedure of Wei et al., Anesthesiology 111 (2009) 147-154
Assay type: cell-based
Text: EXPERIMENT 1: Determination of TRPA1 activity in vitro
The illustrative examples of the present invention were screened for TRPA1 activity according to a procedure described in Wei et al., Anesthesiology 111 (2009) 147-154. Table 1. TRPA1 antagonism in vitro.

Chain of TRPA1 (O75762 whole entry): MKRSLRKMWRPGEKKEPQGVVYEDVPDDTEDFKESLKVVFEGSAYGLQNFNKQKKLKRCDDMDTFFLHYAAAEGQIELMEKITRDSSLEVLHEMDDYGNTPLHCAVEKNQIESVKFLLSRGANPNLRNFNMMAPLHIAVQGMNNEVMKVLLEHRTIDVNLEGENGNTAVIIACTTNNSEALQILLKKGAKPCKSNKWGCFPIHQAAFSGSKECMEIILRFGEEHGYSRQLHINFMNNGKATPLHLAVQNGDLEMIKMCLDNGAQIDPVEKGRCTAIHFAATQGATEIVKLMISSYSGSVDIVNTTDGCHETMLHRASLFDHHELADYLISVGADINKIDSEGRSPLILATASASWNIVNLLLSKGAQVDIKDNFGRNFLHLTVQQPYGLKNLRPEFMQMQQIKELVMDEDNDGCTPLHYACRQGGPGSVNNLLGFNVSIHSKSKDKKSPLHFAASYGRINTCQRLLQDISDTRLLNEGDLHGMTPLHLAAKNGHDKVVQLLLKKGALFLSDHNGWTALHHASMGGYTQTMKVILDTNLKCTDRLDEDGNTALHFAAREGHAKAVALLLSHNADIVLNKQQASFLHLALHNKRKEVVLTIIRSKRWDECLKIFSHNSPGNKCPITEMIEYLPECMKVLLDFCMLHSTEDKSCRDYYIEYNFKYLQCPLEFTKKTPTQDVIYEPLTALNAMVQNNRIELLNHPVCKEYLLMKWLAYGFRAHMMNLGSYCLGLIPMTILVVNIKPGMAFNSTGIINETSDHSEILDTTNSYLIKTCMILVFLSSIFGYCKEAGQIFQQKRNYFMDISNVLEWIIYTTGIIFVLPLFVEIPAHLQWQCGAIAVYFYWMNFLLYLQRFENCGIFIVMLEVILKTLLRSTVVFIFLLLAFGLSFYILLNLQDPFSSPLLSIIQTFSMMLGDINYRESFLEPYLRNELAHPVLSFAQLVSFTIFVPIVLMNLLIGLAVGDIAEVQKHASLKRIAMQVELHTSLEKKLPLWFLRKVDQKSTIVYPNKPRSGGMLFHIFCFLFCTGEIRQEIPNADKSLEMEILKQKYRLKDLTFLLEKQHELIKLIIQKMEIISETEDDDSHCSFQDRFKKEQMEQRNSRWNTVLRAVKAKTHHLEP

O=C(NCc1ccc(Br)cc1)[C@@H]1CCCN1S(=O)(=O)c1ccc(F)cc1 [Example 37, (S)-N-(4-bromobenzyl)-1-(4-fluorophenylsulfonyl)pyrrolidine-2-carboxamide]
IC50: 11.6 µM

CC(C)CCOc1cncc(CNC(=O)[C@@H]2CCCN2S(=O)(=O)c2ccc(F)cc2)c1 [Example 28, (S)-1-(4-Fluorophenylsulfonyl)-N-((5-(isopentyloxy)pyridin-3-yl)methyl) pyrrolidine-2-carboxamide]
IC50: 4.1 µM

CCOc1cc(F)cc(CNC(=O)[C@@H]2CCCN2S(=O)(=O)c2ccc(F)cc2)c1 [Example 15, (S)-N-(3-ethoxy-5-fluorobenzyl)-1-(4-fluorophenylsulfonyl)pyrrolidine-2-carboxamide]
IC50: 5.9 µM

O=C(NCc1cc(OCC(F)(F)F)ccn1)[C@@H]1CCCN1S(=O)(=O)c1ccc(F)c(F)c1 [Example 32, (S)-1-(3,4-Difluorophenylsulfonyl)-N-((4-(2,2,2-trifluoroethoxy)pyridin-2-yl)methyl)pyrrolidine-2-carboxamide]
IC50: 12.5 µM

O=C(NCc1ccc(Cl)cc1)[C@@H]1CCCN1S(=O)(=O)c1ccc(F)cc1 [Example 20, (S)-N-(4-chlorobenzyl)-1-(4-fluorophenylsulfonyl)pyrrolidine-2-carboxamide]
IC50: 12.5 µM

CCCc1cc(CNC(=O)[C@@H]2CCCN2S(=O)(=O)c2ccccc2)ccc1C#N [Example 11, (S)-N-(4-cyano-3-propylbenzyl)-1-(phenylsulfonyl)pyrrolidine-2-carboxamide]
IC50: 4.4 µM

CC(C)CSc1cc(CNC(=O)[C@@H]2C[C@@H](F)CN2S(=O)(=O)c2ccc(F)cc2)ccn1 [Example 36, (2S,4R)-4-Fluoro-1-(4-fluorophenylsulfonyl)-N-((2-(isobutylthio)pyridin-4-yl)methyl)pyrrolidine-2-carboxamide]
IC50: 17.4 µM

O=C(NCc1cc(OCC(F)(F)F)ccn1)[C@@H]1CCCN1S(=O)(=O)c1cc(F)cc(F)c1 [Example 33, (S)-1-(3,5-Difluorophenylsulfonyl)-N-((4-(2,2,2-trifluoroethoxy)pyridine-2-yl)methyl)pyrrolidine-2-carboxamide]
IC50: 18.5 µM

COc1cc(Cl)cc(CNC(=O)[C@@H]2CCCN2S(=O)(=O)c2ccc(F)cc2)c1 [Example 16, (S)-N-(3-chloro-5-methoxybenzyl)-1-(4-fluorophenylsulfonyl) pyrrolidine-2-carboxamide]
IC50: 5.4 µM

O=C(NCc1ccc(Br)cc1F)[C@@H]1CCCN1S(=O)(=O)c1ccc(F)cc1 [Example 9, (S)-N-(4-bromo-2-fluorobenzyl)-1-(4-fluorophenylsulfonyl)pyrrolidine-2-carboxamide]
IC50: 5.3 µM

O=C(NCc1ccc(Br)cc1F)[C@@H]1C[C@@H](F)CN1S(=O)(=O)c1ccc(F)cc1 [Example 12, (2S,4R)-N-(4-bromo-2-fluorobenzyl)-4-fluoro-1-(4-fluorophenyl-sulfonyl)pyrrolidine-2-carboxamide]
IC50: 16.3 µM

O=C(NCc1ccc(C(F)(F)F)cc1)[C@@H]1CCCN1S(=O)(=O)c1ccccc1 [Example 17, (S)-1-(Phenylsulfonyl)-N-(4-(trifluoromethyl)benzyl)pyrrolidine-2-carboxamide]
IC50: 13 µM

CC(C)CSc1cc(CNC(=O)[C@@H]2CCCN2S(=O)(=O)c2ccc(F)cc2)ccn1 [Example 19, (S)-1-(4-Fluorophenylsulfonyl)-N-((2-(isobutylthio)pyridin-4-yl)methyl)pyrrolidine-2-carboxamide]
IC50: 9.3 µM

CCc1cc(CNC(=O)[C@@H]2CCCN2S(=O)(=O)c2ccc(F)cc2)ccc1C#N [Example 5, (S)-N-(4-cyano-3-ethylbenzyl)-1-(4-fluorophenylsulfonyl)pyrrolidine-2-carboxamide]
IC50: 9.8 µM

CC(C)(C)COc1cc(CNC(=O)[C@@H]2C[C@@H](F)CN2S(=O)(=O)c2ccc(F)cc2)ccn1 [Example 4, (2S,4R)-4-Fluoro-1-(4-fluorophenylsulfonyl)-N-((2-(neopentyloxy)pyridin-4-yl)methyl)pyrrolidine-2-carboxamide]
IC50: 11.3 µM

O=C(NCc1cc(C(F)(F)F)ccn1)[C@@H]1CCCN1S(=O)(=O)c1ccc(F)cc1 [Example 27, (S)-1-(4-Fluorophenylsulfonyl)-N-((4-(trifluoromethyl)pyridin-2-yl)methyl)pyrrolidine-2-carboxamide]
IC50: 33.8 µM

CC(C)c1cc(CNC(=O)[C@@H]2CCCN2S(=O)(=O)c2ccccc2)ccc1C#N [Example 35, (S)-N-(4-cyano-3-isopropylbenzyl)-1-(phenylsulfonyl)pyrrolidine-2-carboxamide]
IC50: 9.3 µM

O=C(NCc1cc(F)cc(OC(F)F)c1)[C@@H]1C[C@@H](F)CN1S(=O)(=O)c1ccc(F)cc1 [Example 18, (2S,4R)-N-(3-(difluoromethoxy)-5-fluorobenzyl)-4-fluoro-1-(4-fluorophenylsulfonyl)pyrrolidine-2-carboxamide]
IC50: 24.1 µM

O=C(NCc1cc(OCC(F)(F)F)ccn1)[C@@H]1CCCN1S(=O)(=O)c1ccc(F)cc1 [Example 7, (S)-1-(4-Fluorophenylsulfonyl)-N-((4-(2,2,2-trifluoroethoxy)pyridin-2-yl)methyl)pyrrolidine-2-carboxamide]
IC50: 17.3 µM

O=C(NCc1ccnc(OCCC(F)(F)F)c1)[C@@H]1C[C@@H](F)CN1S(=O)(=O)c1ccc(F)c(F)c1 [Example 14, (2S,4R)-1-(3,4-Difluorophenylsulfonyl)-4-fluoro-N-((2-(3,3,3-trifluoropropoxy)pyridin-4-yl)methyl)pyrrolidine-2-carboxamide]
IC50: 26 µM

CC(C)Nc1cc(CNC(=O)[C@@H]2C[C@@H](F)CN2S(=O)(=O)c2ccccc2)ccc1Cl [Example 21, (2S,4R)-N-(4-chloro-3-(isopropylamino)benzyl)-4-fluoro-1-(phenylsulfonyl)pyrrolidine-2-carboxamide]
IC50: 15.6 µM

O=C(NCc1ccnc(OCCC(F)(F)F)c1)[C@@H]1C[C@@H](F)CN1S(=O)(=O)c1ccc(F)cc1 [Example 26, (2S,4R)-4-Fluoro-1-(4-fluorophenylsulfonyl)-N-((2-(3,3,3-trifluoropropoxy)pyridin-4-yl)methyl)pyrrolidine-2-carboxamide]
IC50: 37 µM

O=C(NCc1cccc(C2CC2)c1)[C@@H]1CCCN1S(=O)(=O)c1ccc(F)cc1 [Example 23, (S)-N-(3-cyclopropylbenzyl)-1-(4-fluorophenylsulfonyl)pyrrolidine-2-carboxamide]
IC50: 7.7 µM

CCCOc1cccc(CNC(=O)[C@@H]2CCCN2S(=O)(=O)c2ccccc2)c1 [Example 6, (S)-1-(Phenylsulfonyl)-N-(3-propoxybenzyl)pyrrolidine-2-carboxamide]
IC50: 5.1 µM

O=C(NCc1cccc(S(F)(F)(F)(F)F)c1)[C@@H]1CCCN1S(=O)(=O)c1ccccc1 [Example 25]
IC50: 6.7 µM

CC(C)CCOc1cncc(CNC(=O)[C@@H]2C[C@@H](F)CN2S(=O)(=O)c2ccc(F)cc2)c1 [Example 29, (2S,4R)-4-Fluoro-1-(4-fluorophenylsulfonyl)-N-((5-(isopentyloxy)pyridine-3-yl)methyl)pyrrolidine-2-carboxamide]
IC50: 13.6 µM

CCCc1cc(CNC(=O)[C@@H]2C[C@@H](F)CN2S(=O)(=O)c2ccccc2)ccc1C#N [Example 34, (2S,4R)-N-(4-cyano-3-propylbenzyl)-4-fluoro-1-(phenylsulfonyl) pyrrolidine-2-carboxamide]
IC50: 12.6 µM

CCCNc1cccc(CNC(=O)[C@@H]2CCCN2S(=O)(=O)c2ccc(F)cc2)c1 [Example 39, (S)-1-(4-Fluorophenylsulfonyl)-N-(3-(propylamino)benzyl)pyrrolidine-2-carboxamide]
IC50: 14.1 µM

O=C(NCc1ccc(C(F)(F)F)cc1)[C@@H]1C[C@@H](F)CN1S(=O)(=O)c1ccc(F)cc1 [Example 8, (2S,4R)-4-Fluoro-1-(4-fluorophenylsulfonyl)-N-(4-(trifluoromethyl)benzyl)pyrrolidine-2-carboxamide]
IC50: 14.5 µM

O=C(NCc1cccc(C(F)(F)F)c1)[C@@H]1CCCN1S(=O)(=O)c1ccccc1 [Example 24, (S)-1-(Phenylsulfonyl)-N-(3-(trifluoromethyl)benzyl)pyrrolidine-2-carboxamide]
IC50: 17 µM

CSCCOc1cccc(CNC(=O)[C@@H]2CCCN2S(=O)(=O)c2ccc(F)cc2)c1 [Example 1, (S)-1-(4-Fluorophenylsulfonyl)-N-(3-(2-(methylthio)ethoxy)benzyl) pyrrolidine-2-carboxamide]
IC50: 4 µM

CCCC(=O)c1cccc(CNC(=O)[C@@H]2CCCN2S(=O)(=O)c2ccc(F)cc2)c1 [Example 3, (S)-N-(3-butyrylbenzyl)-1-(4-fluorophenylsulfonyl)pyrrolidine-2-carboxamide]
IC50: 10.4 µM

O=C(NCc1cc(F)cc(OC(F)F)c1)[C@@H]1CCCN1S(=O)(=O)c1ccc(F)cc1 [Example 13, (S)-N-(3-(difluoromethoxy)-5-fluorobenzyl)-1-(4-fluorophenylsulfonyl) pyrrolidine-2-carboxamide]
IC50: 11.5 µM

O=C(NCc1cccc(Br)c1)[C@@H]1CCCN1S(=O)(=O)c1ccccc1 [Example 2, (S)-N-(3-bromobenzyl)-1-(phenylsulfonyl)pyrrolidine-2-carboxamide]
IC50: 18.6 µM

CCc1ccc(CNC(=O)[C@@H]2CCCN2S(=O)(=O)c2ccc(F)cc2)cc1 [Example 38, (S)-N-(4-ethylbenzyl)-1-(4-fluorophenylsulfonyl)pyrrolidine-2-carboxamide]
IC50: 16.8 µM

O=C(NCc1ccnc(OCCC(F)(F)F)c1)[C@@H]1CCCN1S(=O)(=O)c1cc(F)cc(F)c1 [Example 10, (S)-1-(3,5-Difluorophenylsulfonyl)-N-((2-(3,3,3-trifluoropropoxy)pyridin-4-yl)methyl)pyrrolidine-2-carboxamide]
IC50: 16.9 µM

O=C(NCc1cccc(C2CC2)c1)[C@@H]1CCCN1S(=O)(=O)c1ccccc1 [Example 22, (S)-N-(3-cyclopropylbenzyl)-1-(phenylsulfonyl)pyrrolidine-2-carboxamide]
IC50: 13.6 µM

CC(C)COc1ccnc(CNC(=O)[C@@H]2CCCN2S(=O)(=O)c2ccc(F)cc2)c1 [Example 30, (S)-1-(4-Fluorophenylsulfonyl)-N-((4-isobutoxypyridin-2-yl)methyl) pyrrolidine-2-carboxamide]
IC50: 10.5 µM
